Measurements: US20210121493A1, “METHODS FOR TREATING LIVER DISEASES” (Cedars-Sinai Medical Center, priority 2017, published 2021)
“And” between values parts separate entries of the source, which are not always exact repeats. Equal values may be shown once.

Legend:
[1] = system: HepG2 cell line; experiment: Growth of HepG2 cells by BrdU incorporation; type: cell-based, human
Method: HepG2 cells were treated with 100 μM SAMe, 10 μM OCA individually or combined for 24 hours. Growth was determined using BrdU incorporation. SAMe was mixed in saline and OCA was mixed in DMSO (0.1% final), which yielded the same values. As shown in Table 1 and FIG. 2, while OCA alone induced growth of the cancer cell line, SAMe inhibited growth of the cancer cell line even in the presence of OCA. SAMe, OCA and SAMe+OCA were 58.65%, 124.05% and 89.5%, respectively, of their respective controls.
(§1) HepG2 (immortalized cell line consisting of human liver carcinoma cells) cells were treated with 100 μM SAMe, 10 nM GW4064 individually or combined for 24 hours. Growth was determined using BrdU incorporation. SAMe was mixed in saline and GW4064 was mixed in DMSO (0.1% final), which yielded the same values. As shown in Table 2 and FIG. 3, while GW4064 alone induced growth of the cancer cell line, SAMe inhibited growth of the cancer cell line even in the presence of GW4064. SAMe, GW4064 and SAMe+GW4064 were 75.52%, 155.70% and 116.97%, respectively, of their respective controls.
as §1, with “Tropifexor” for “GW4064”, “Tropifexor.” for “GW4064.”, “SAMe+Tropifexor” for “SAMe+GW4064”, “151.04%” for “155.70%”, “114.77%,” for “116.97%,”

[2] = system: MAFG; experiment: expression of the oncogene MAFG
[3] = system: MzChA-1 (cholangiocarcinoma) cells or HepG2 cells; experiment: xenograft mice models, tumor volume; type: in vivo; conditions: SAMe 100 mg/kg/day orally
Method: Mice were injected with MzChA-1 (cholangiocarcinoma) cells or HepG2 (immortalized cell line consisting of human liver carcinoma cells) cells. In mice treated with OCA, 30/mg/kg/day of OCA was administered orally. In mice treated with SAMe, 100 mg/kg/day was administered orally.

[4] = HepG2, 10 μM OCA in DMSO, 24 hours
[5] = HepG2, 100 μM SAMe in saline, 24 hours
[6] = HepG2, 100 μM SAMe, 24 hours (Example 2)
[7] = HepG2, 10 nM Tropifexor, 24 hours
[8] = HepG2, 10 nM Tropifexor, 24 hours, listed as Tropi

Structure (SMILES): CC(C)c1onc(-c2c(Cl)cccc2Cl)c1COc1ccc(/C=C/c2cccc(C(=O)O)c2)c(Cl)c1 [GW4064]
- BrdU Incorporation OD540 nm, AVE ([1]; HepG2, 10 nM GW4064, 24 hours): 0.1502
- BrdU Incorporation, % of respective controls ([1]; HepG2, 10 nM GW4064, 24 hours): 155.70%
- BrdU Incorporation, % of respective controls ([1]; HepG2, 10 nM GW4064, 24 hours, listed as GW): 155.6995%

Structure (SMILES): CC[C@H]1[C@@H](O)[C@@H]2[C@H](CC[C@]3(C)[C@@H]([C@H](C)CCC(=O)O)CC[C@@H]23)[C@@]2(C)CC[C@@H](O)C[C@@H]12 [OCA, 6α-ethyl-chenodeoxycholic acid]
- BrdU incorporation, Ave [1, 4]: 0.18
- BrdU incorporation, single readings [1, 4]: 0.181 and 0.175 and 0.202 and 0.186 and 0.162 and 0.177
- BrdU Incorporation, % of respective controls ([1]; HepG2, 10 μM OCA, 24 hours): 124.05%

Structure (SMILES): C[S+](CC[C@H](N)C(=O)O)C[C@H]1O[C@@H](n2cnc3c(N)ncnc32)[C@H](O)[C@@H]1O (stereo partly drawn) [SAMe, S-adenosylmethionine]
- BrdU incorporation, Ave [1, 5]: 0.09
- BrdU incorporation, single readings [1, 5]: 0.103 and 0.089 and 0.101 and 0.055 and 0.075
- BrdU Incorporation, % of respective controls ([1]; HepG2, 100 μM SAMe, 24 hours (Example 1)): 58.65%
- BrdU Incorporation OD540 nm, AVE [1, 6]: 0.07287
- BrdU Incorporation OD540 nm, single readings [1, 6]: 0.065 and 0.066 and 0.064 and 0.072 and 0.059 and 0.113 and 0.08
- BrdU Incorporation, % of respective controls [1, 6]: 75.52%
- effect on expression of MAFG [2]: decreases expression of MAFG
- tumor volume versus control group [3]: lower than the control group

Structure (SMILES): O=C(O)c1cc(F)c2nc(N3[C@@H]4CC[C@H]3C[C@@H](OCc3c(-c5ccccc5OC(F)(F)F)noc3C3CC3)C4)sc2c1 [Tropifexor]
- BrdU Incorporation OD540 nm, AVE [1, 7]: 0.1457
- BrdU Incorporation, % of respective controls [1, 7]: 151.04%
- BrdU Incorporation OD540 nm, single readings [1, 8]: 0.153 and 0.121 and 0.134 and 0.125 and 0.105 and 0.173 and 0.202
- BrdU Incorporation, % of respective controls [1, 8]: 151.0363%
